Structures can show the parent of a compound that is named as a salt. Where two headings read alike, the source gives them in different places.
Target: SARS-CoV-2 3CLpro (Severe acute respiratory syndrome coronavirus 2, UniProt P0DTD1)
Test: biochemical
Type: biochemical
Parameters: Replicate_1 / Replicate_2 / mean / mean (LOPAC_screen_w_protease): unit not given here
[1] = 4 h, LOPAC1280 primary screen with protease, 5 µM compound, replicate 1, read-out: Replicate_1 (LOPAC_screen_w_protease)
[2] = 4 h, LOPAC1280 primary screen with protease, 5 µM compound, replicate 2, read-out: Replicate_2 (LOPAC_screen_w_protease)
[3] = LOPAC1280 primary screen with protease, 5 µM compound, mean of the two replicates
[4] = LOPAC1280 primary screen with protease, 5 µM compound, mean of two replicates
[5] = LOPAC1280 primary screen with protease, 5 µM compound, replicate 1
[6] = LOPAC1280 primary screen with protease, 5 µM compound, replicate 2
[7] = sheet LOPAC_screen_w_protease, primary screen with protease, 5 µM, mean of two replicates
[8] = sheet LOPAC_screen_w_protease, primary screen with protease, 5 µM, replicate 1
[9] = sheet LOPAC_screen_w_protease, primary screen with protease, 5 µM, replicate 2
[10] = 4 h, sheet LOPAC_screen_w_protease, LOPAC1280 primary screen at 5 µM, with protease, replicate 1, read-out: Replicate_1
[11] = 4 h, sheet LOPAC_screen_w_protease, LOPAC1280 primary screen at 5 µM, with protease, replicate 2, read-out: Replicate_2
[12] = sheet LOPAC_screen_w_protease, LOPAC1280 primary screen at 5 µM, with protease, mean of the two replicates
[13] = sheet LOPAC_screen_w_protease, LOPAC1280 primary screen at 5 µM, with protease, replicate 1
[14] = sheet LOPAC_screen_w_protease, LOPAC1280 primary screen at 5 µM, with protease, replicate 2
[15] = 4 h, sheet LOPAC_screen_w_protease, LOPAC1280 primary screen at 5 µM, with protease, mean of the two replicates, read-out: mean
[16] = sheet LOPAC_screen_w_protease, primary screen of LOPAC1280 at 5 µM with protease, mean of the two replicates
[17] = sheet LOPAC_screen_w_protease, primary screen of LOPAC1280 at 5 µM with protease, replicate 1
[18] = sheet LOPAC_screen_w_protease, primary screen of LOPAC1280 at 5 µM with protease, replicate 2
[19] = 4 h, sheet LOPAC_screen_w_protease, LOPAC1280 primary screen with protease, 5 µM compound, mean of the two replicates, read-out: mean
[20] = 4 h, sheet LOPAC_screen_w_protease, LOPAC1280 primary screen with protease, 5 µM compound, replicate 1, read-out: Replicate_1
[21] = 4 h, sheet LOPAC_screen_w_protease, LOPAC1280 primary screen with protease, 5 µM compound, replicate 2, read-out: Replicate_2
[22] = 4 h, sheet LOPAC_screen_w_protease, LOPAC1280 at 5 µM, mean of two replicates, read-out: mean
[23] = 4 h, sheet LOPAC_screen_w_protease, LOPAC1280 at 5 µM, replicate 1, read-out: Replicate_1
[24] = 4 h, sheet LOPAC_screen_w_protease, LOPAC1280 at 5 µM, replicate 2, read-out: Replicate_2
[25] = 4 h, read-out: Replicate_1 (LOPAC screen with protease)
[26] = 4 h, read-out: Replicate_2 (LOPAC screen with protease)
[27] = 4 h, read-out: mean (LOPAC screen with protease)

O=C1OC(=O)[C@H]2[C@@H]1[C@@H]1CC[C@H]2O1 [Norcantharidin]
mean (sheet LOPAC_screen_w_protease, primary screen with protease, compound at 5 µM, mean of two replicates): 2.796 | Replicate_1 (sheet LOPAC_screen_w_protease, primary screen with protease, compound at 5 µM, replicate 1): 1.684 | Replicate_2 (sheet LOPAC_screen_w_protease, primary screen with protease, compound at 5 µM, replicate 2): 3.909

CCCNC(=O)NS(=O)(=O)c1ccc(Cl)cc1 [Chlorpropamide]
inhibition at 5 µM [1]: 1.51% | inhibition at 5 µM [2]: 2.73% | mean (LOPAC_screen_w_protease) [3]: 2.118

CC(C)(C=O)Cc1cc(C(C)(C)C)c(O)c(C(C)(C)C)c1 [CGP-13501]
mean (LOPAC_screen_w_protease) [4]: 1.552 | Replicate_1 (LOPAC_screen_w_protease) [5]: -0.1889 | Replicate_2 (LOPAC_screen_w_protease) [6]: 3.292

Br.C[N+](C)(C)CCCCCNCC12CC3CC(CC(C3)C1)C2.[Br-] [IEM-1460]
mean [7]: 0.3994 | Replicate_1 [8]: 0.5263 | Replicate_2 [9]: 0.2724

CC(C)CC(N)CSSCC(N)CC(C)C.Cl.Cl [L-Leucinethiol, oxidized dihydrochloride]
mean (LOPAC screen with protease) (sheet LOPAC_screen_w_protease, primary screen at 5 µM, mean of two replicates): 45.1144 | Replicate_1 (LOPAC screen with protease) (sheet LOPAC_screen_w_protease, primary screen at 5 µM, replicate 1): 48.0888 | Replicate_2 (LOPAC screen with protease) (sheet LOPAC_screen_w_protease, primary screen at 5 µM, replicate 2): 42.1401

O=C(c1ccc(F)cc1)C1CCN(CCn2c(=O)[nH]c3ccccc3c2=O)CC1 [Ketanserin tartrate]
inhibition at 5 µM (4 h, sheet LOPAC_screen_w_protease, LOPAC1280 primary screen at 5 µM, with protease, mean of two replicates, read-out: mean): -1.02% | inhibition at 5 µM [10]: 1.01% | inhibition at 5 µM [11]: -3.04%

C[C@H](Cc1ccccc1)Nc1ncnc2c1ncn2[C@@H]1O[C@H](CO)[C@@H](O)[C@H]1O [R(-)-N6-(2-Phenylisopropyl)adenosine]
mean [12]: 0.4967 | Replicate_1 [13]: 2.165 | Replicate_2 [14]: -1.171

Cl.Cl.Clc1cccc(N2CCNCC2)c1
mean [12]: 0.4258 | Replicate_1 [13]: 0.3435 | Replicate_2 [14]: 0.5081

N=C(N)NCCC[C@H](N)C(=O)O [L-Arginine]
inhibition at 5 µM [15]: 0.787% | inhibition at 5 µM [10]: 3.1% | inhibition at 5 µM [11]: -1.52%

O=P1(N(CCCl)CCCl)NCCCO1 (stereo not drawn) [Cyclophosphamide monohydrate]
inhibition at 5 µM (4 h, read-out: Replicate_1): -1.54% | inhibition at 5 µM (4 h, read-out: Replicate_2): 3.01% | inhibition at 5 µM (4 h, read-out: mean): 0.736%

CNCC(O)c1ccc(O)c(O)c1.Cl (racemic) [(±)-Epinephrine hydrochloride]
Replicate_1: 3.211 | Replicate_2: 1.4095 | mean: 2.31

Cn1c(=O)[nH]c2ncn(C)c2c1=O [1,7-Dimethylxanthine]
inhibition at 5 µM [1]: 1.95% | inhibition at 5 µM [2]: 1.66% | mean (LOPAC_screen_w_protease) [3]: 1.802

CCCCCCCCCCCCCCC[C@H](O)[C@H](N)CO (racemic) [DL-erythro-Dihydrosphingosine]
mean (LOPAC_screen_w_protease) [4]: 1.428 | Replicate_1 (LOPAC_screen_w_protease) [5]: 4.536 | Replicate_2 (LOPAC_screen_w_protease) [6]: -1.681

CC(=O)[C@H]1CC[C@H]2[C@@H]3CC[C@H]4C[C@H](O)CC[C@]4(C)[C@H]3C(=O)C[C@]12C [5alpha-Pregnan-3alpha-ol-11,20-dione]
mean (sheet LOPAC_screen_w_protease, primary screen with protease, mean of two replicates): 2.341 | Replicate_1 (sheet LOPAC_screen_w_protease, primary screen with protease, replicate 1): 0.8983 | Replicate_2 (sheet LOPAC_screen_w_protease, primary screen with protease, replicate 2): 3.784

NC1(C(=O)O)CCc2cc(C(=O)O)ccc21 (stereo not drawn) [AIDA]
mean [16]: 3.327 | Replicate_1 [17]: 3.929 | Replicate_2 [18]: 2.7246

CCCN1CCOC2c3cc(O)ccc3OCC21.Cl (racemic) [(±)-PD 128,907 hydrochloride]
mean [16]: 3.436 | Replicate_1 [17]: 4.647 | Replicate_2 [18]: 2.226

O=C(O)C1CCCNC1 (racemic) [(±)-Nipecotic acid]
mean [12]: 0.4335 | Replicate_1 [13]: 0.981 | Replicate_2 [14]: -0.114

CC(Cc1ccc(O)cc1)NCC(O)c1cc(O)cc(O)c1 (stereo not drawn) [Fenoterol hydrobromide]
inhibition at 5 µM [19]: 5.3% | inhibition at 5 µM [20]: 6.58% | inhibition at 5 µM [21]: 4.02%

COC(=O)C1=C(C)NC(C)=C(C(=O)OCCN(C)Cc2ccccc2)C1c1cccc([N+](=O)[O-])c1 (stereo not drawn) [Nicardipine hydrochloride]
inhibition at 5 µM (4 h, sheet LOPAC_screen_w_protease, primary screen with protease, compound at 5 µM, mean of two replicates, read-out: mean): 2.73% | inhibition at 5 µM (4 h, sheet LOPAC_screen_w_protease, primary screen with protease, compound at 5 µM, replicate 1, read-out: Replicate_1): 2.03% | inhibition at 5 µM (4 h, sheet LOPAC_screen_w_protease, primary screen with protease, compound at 5 µM, replicate 2, read-out: Replicate_2): 3.42%

Cn1c(=O)c2[nH]cnc2n(C)c1=O.Cn1c(=O)c2[nH]cnc2n(C)c1=O.NCCN [Aminophylline ethylenediamine]
Replicate_1: 0.5539 | Replicate_2: -0.4553 | mean: 0.04927

CNCCCC12CCC(c3ccccc31)c1ccccc12 [Maprotiline hydrochloride]
inhibition at 5 µM (4 h, read-out: Replicate_1): 4% | inhibition at 5 µM (4 h, read-out: Replicate_2): 5.55% | inhibition at 5 µM (4 h, read-out: mean): 4.77%

CC(C)=CCC/C(C)=C/CC/C(C)=C/CSc1ccccc1C(=O)O [Farnesylthiosalicylic acid]
mean [7]: 0.3894 | Replicate_1 [8]: 1.928 | Replicate_2 [9]: -1.149

NC[C@@H]1O[C@H](O[C@H]2[C@@H](O)[C@H](O[C@@H]3[C@@H](O)[C@H](N)C[C@H](N)[C@H]3O[C@H]3O[C@H](CO)[C@@H](O)[C@H](O)[C@H]3N)O[C@@H]2CO)[C@H](N)[C@@H](O)[C@@H]1O [Paromomycin sulfate]
inhibition at 5 µM (4 h, sheet LOPAC_screen_w_protease, primary screen at 5 µM, mean of two replicates, read-out: mean (LOPAC screen with protease)): 7.62% | inhibition at 5 µM (4 h, sheet LOPAC_screen_w_protease, primary screen at 5 µM, replicate 1, read-out: Replicate_1 (LOPAC screen with protease)): 8.4% | inhibition at 5 µM (4 h, sheet LOPAC_screen_w_protease, primary screen at 5 µM, replicate 2, read-out: Replicate_2 (LOPAC screen with protease)): 6.83%

OCCN1CCN(CCCN2c3ccccc3Sc3ccc(Cl)cc32)CC1 [Perphenazine]
inhibition at 5 µM [22]: 1.14% | inhibition at 5 µM [23]: 0.377% | inhibition at 5 µM [24]: 1.91%

CCCC(C(=O)OCCN(CC)CC)(c1ccccc1)c1ccccc1.Cl [SKF-525A hydrochloride]
mean [16]: 3.89 | Replicate_1 [17]: 3.162 | Replicate_2 [18]: 4.618

O=c1c2ccccc2nc2n1CCc1c-2[nH]c2ccccc12 [Rutaecarpine]
inhibition at 5 µM [15]: 0.598% | inhibition at 5 µM [10]: 1.54% | inhibition at 5 µM [11]: -0.348%

NCCc1ccc(O)c(O)c1 [Dopamine hydrochloride]
inhibition at 5 µM [25]: 16.2% | inhibition at 5 µM [26]: 14.6% | inhibition at 5 µM [27]: 15.4%

CSc1ccc(C(=O)c2[nH]c(=O)[nH]c2C)cc1 [Enoximone]
inhibition at 5 µM [25]: 7.98% | inhibition at 5 µM [26]: 10% | inhibition at 5 µM [27]: 9.01%

O=c1c(O)c(-c2ccc(O)c(O)c2)oc2cc(O)cc(O)c12 [quercetin, reference compound]
inhibition at 5 µM (read-out: inhibition of 3CLpro in the primary screen): 1.9%

CC(=O)OCC1=C(C(=O)O)N2C(=O)[C@@H](NC(=O)Cc3cccs3)[C@H]2SC1 [Cephalothin sodium]
inhibition at 5 µM [19]: 5.22% | inhibition at 5 µM [20]: 4.83% | inhibition at 5 µM [21]: 5.61%

CSc1ccc2c(c1)C(N1CCN(C)CC1)Cc1ccccc1S2 (stereo not drawn) [Methiothepin mesylate]
inhibition at 5 µM [19]: 4.09% | inhibition at 5 µM [20]: 3.76% | inhibition at 5 µM [21]: 4.42%

COc1ccc2c(c1)[C@@]13CCCC[C@H]1[C@@H](C2)NCC3.Cl [3-Methoxy-morphanin hydrochloride]
Replicate_1: 3.105 | Replicate_2: 3.489 | mean: 3.297

O=C(NCC1CCCCN1)c1cc(OCC(F)(F)F)ccc1OCC(F)(F)F (stereo not drawn) [Flecainide acetate]
inhibition at 5 µM [22]: 1.01% | inhibition at 5 µM [23]: 2.84% | inhibition at 5 µM [24]: -0.814%

O=C(O)[C@@H]1CCN1 [L-azetidine-2-carboxylic acid]
inhibition at 5 µM (4 h, sheet LOPAC_screen_w_protease, primary screen with protease, 5 µM, mean of two replicates, read-out: mean): -0.00926% | inhibition at 5 µM (4 h, sheet LOPAC_screen_w_protease, primary screen with protease, 5 µM, replicate 1, read-out: Replicate_1): -0.0704% | inhibition at 5 µM (4 h, sheet LOPAC_screen_w_protease, primary screen with protease, 5 µM, replicate 2, read-out: Replicate_2): 0.0519%

COc1ccc2cc([C@H](C)C(=O)[O-])ccc2c1.[Na+] [(-)-Naproxen sodium]
Replicate_2: -1.573 | mean: 0.4756

Reference: paper PMC7587356, “High-Throughput Screening for Inhibitors of the SARS-CoV-2 Protease Using a FRET-Biosensor” (Molecules, 2020)
